Assays:
[1] = molecular target: T1, Bromodomain-containing protein 1 (Homo sapiens, UniProt O95696); assay: Inhibition of His-tagged BRPF2 (unknown origin) after 30 mins by alphaScreen assay
T1 sequence (O95696 whole entry): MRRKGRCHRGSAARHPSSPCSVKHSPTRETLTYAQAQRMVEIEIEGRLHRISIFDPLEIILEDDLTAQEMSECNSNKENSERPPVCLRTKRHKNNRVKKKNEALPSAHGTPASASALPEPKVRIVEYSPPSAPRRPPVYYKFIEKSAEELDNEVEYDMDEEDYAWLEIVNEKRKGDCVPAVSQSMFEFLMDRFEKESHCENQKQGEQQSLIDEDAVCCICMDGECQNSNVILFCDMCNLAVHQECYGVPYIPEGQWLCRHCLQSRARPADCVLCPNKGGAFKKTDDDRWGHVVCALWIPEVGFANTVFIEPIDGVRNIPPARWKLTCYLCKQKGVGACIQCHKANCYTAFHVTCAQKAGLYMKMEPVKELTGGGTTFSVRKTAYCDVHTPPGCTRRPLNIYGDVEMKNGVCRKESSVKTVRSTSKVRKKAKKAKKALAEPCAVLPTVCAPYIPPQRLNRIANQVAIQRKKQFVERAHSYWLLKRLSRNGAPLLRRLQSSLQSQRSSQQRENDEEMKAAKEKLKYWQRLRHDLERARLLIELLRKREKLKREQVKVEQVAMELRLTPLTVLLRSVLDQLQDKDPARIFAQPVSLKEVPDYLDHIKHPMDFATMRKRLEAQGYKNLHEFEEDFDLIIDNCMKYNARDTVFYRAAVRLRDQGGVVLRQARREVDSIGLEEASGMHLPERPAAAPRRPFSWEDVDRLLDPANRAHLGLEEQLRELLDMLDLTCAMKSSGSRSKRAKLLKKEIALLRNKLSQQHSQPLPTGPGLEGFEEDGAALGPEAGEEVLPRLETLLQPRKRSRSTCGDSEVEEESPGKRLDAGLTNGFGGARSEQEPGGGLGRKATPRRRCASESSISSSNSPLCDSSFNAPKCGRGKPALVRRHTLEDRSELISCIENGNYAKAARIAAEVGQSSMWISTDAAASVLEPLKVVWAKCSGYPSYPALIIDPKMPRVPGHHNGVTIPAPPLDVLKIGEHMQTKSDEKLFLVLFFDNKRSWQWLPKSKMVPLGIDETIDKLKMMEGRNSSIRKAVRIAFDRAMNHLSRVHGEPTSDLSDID

[2] = molecular target: T2, Bromodomain-containing protein 9 (Homo sapiens, UniProt Q9H8M2); assay: Inhibition of His-tagged BRD9 (unknown origin) after 30 mins by alphaScreen assay
T2 sequence (Q9H8M2 whole entry): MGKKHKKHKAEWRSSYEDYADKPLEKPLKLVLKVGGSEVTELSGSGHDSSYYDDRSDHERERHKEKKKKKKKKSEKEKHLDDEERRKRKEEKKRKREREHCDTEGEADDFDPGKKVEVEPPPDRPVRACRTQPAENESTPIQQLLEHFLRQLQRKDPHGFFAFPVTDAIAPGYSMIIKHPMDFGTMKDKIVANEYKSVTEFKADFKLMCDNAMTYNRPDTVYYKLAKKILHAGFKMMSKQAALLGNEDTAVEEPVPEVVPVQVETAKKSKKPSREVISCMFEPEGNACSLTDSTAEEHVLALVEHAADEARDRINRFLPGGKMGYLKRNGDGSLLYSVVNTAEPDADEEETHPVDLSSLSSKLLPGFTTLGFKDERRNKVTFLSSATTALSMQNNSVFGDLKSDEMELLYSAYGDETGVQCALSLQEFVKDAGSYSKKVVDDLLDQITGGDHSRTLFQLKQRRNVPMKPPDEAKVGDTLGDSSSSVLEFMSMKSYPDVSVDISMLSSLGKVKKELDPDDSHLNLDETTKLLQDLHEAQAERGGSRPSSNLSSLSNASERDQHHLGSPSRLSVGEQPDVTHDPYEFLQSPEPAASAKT

Nav1.5 = Nav1.5 (Homo sapiens, UniProt Q14524); assay: Inhibition of Nav1.5 (unknown origin) at 30 uM
Nav1.5, sequence (Q14524 whole entry): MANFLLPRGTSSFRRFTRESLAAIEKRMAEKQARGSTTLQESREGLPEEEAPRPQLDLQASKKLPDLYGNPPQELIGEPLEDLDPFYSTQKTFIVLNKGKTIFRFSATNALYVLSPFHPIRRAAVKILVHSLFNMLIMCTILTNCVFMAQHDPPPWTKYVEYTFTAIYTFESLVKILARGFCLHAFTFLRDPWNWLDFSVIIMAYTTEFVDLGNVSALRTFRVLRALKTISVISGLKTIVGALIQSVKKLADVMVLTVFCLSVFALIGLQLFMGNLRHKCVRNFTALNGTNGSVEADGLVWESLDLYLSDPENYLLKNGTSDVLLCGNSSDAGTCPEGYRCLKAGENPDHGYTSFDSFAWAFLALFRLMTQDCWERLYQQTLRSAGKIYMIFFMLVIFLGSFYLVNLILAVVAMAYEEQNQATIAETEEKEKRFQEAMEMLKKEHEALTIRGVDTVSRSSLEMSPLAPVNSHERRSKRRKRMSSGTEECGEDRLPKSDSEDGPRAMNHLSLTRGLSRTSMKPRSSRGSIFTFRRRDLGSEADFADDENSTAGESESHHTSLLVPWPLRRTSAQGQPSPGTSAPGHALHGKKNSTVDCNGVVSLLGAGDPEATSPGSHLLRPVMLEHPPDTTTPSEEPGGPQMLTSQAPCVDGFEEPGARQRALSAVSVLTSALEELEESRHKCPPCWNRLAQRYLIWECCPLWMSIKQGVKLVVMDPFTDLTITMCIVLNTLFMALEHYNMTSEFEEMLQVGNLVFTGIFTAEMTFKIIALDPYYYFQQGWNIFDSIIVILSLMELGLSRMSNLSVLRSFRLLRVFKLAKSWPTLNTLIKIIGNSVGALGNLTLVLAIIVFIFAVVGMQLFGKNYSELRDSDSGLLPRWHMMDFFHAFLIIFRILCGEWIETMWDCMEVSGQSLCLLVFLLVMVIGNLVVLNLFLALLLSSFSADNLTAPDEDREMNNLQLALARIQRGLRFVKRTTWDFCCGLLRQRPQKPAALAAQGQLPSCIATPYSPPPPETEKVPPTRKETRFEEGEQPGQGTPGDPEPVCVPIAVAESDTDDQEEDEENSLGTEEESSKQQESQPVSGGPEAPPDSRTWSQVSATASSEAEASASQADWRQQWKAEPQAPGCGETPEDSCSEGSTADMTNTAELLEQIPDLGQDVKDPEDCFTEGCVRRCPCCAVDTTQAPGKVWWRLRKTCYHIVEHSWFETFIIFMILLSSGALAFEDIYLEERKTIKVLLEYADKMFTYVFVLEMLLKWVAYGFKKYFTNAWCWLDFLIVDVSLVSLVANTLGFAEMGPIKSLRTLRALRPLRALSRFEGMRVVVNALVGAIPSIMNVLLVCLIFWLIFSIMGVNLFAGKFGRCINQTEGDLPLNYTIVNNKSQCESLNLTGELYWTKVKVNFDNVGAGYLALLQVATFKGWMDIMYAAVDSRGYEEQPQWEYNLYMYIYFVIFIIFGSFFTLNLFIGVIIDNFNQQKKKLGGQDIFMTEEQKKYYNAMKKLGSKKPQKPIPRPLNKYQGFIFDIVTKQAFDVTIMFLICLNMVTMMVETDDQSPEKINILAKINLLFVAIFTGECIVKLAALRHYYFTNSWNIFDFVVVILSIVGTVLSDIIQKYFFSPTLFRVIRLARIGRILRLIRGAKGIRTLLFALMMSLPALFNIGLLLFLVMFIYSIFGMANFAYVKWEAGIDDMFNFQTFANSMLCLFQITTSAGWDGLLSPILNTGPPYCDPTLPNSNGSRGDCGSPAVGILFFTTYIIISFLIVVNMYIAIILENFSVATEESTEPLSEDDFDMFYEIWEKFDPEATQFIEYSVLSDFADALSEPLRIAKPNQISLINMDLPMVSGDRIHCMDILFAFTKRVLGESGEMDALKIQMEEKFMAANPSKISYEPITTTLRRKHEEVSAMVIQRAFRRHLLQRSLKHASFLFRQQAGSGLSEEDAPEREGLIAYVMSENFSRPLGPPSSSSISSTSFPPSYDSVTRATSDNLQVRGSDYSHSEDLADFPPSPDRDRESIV

[3] = Inhibition of CYP450 (unknown origin); format: ADME; conditions: human
[4] = Apparent permeability across basolateral to apical side in human Caco2 cells at 10 uM after 2 hrs by LC-MS/MS analysis; format: ADME, cell-based; conditions: Caco-2
NCI-H1703 = assay: Inhibition of cell proliferation of human NCI-H1703 cells after 72 hrs by MTS assay; format: functional; conditions: NCI-H1703, 72 h
[5] = Fraction of drug absorbed in CD1 mouse at 3 mg/kg, po by UPLC-MS/MS analysis; format: ADME, organism-based; conditions: in vivo, read-out: Fabs
[6] = Inhibition of cell proliferation of human NCI60 cells at 10 uM after 48 hrs by SRB assay; format: functional; conditions: NCI60, 48 h
KCNQ1/minK = KCNQ1/minK (Homo sapiens, UniProt P51787+Q8N4C8); assay: Inhibition of KCNQ1/minK (unknown origin) at 30 uM; format: protein-complex assay
KCNQ1/minK, sequence (P51787 whole entry): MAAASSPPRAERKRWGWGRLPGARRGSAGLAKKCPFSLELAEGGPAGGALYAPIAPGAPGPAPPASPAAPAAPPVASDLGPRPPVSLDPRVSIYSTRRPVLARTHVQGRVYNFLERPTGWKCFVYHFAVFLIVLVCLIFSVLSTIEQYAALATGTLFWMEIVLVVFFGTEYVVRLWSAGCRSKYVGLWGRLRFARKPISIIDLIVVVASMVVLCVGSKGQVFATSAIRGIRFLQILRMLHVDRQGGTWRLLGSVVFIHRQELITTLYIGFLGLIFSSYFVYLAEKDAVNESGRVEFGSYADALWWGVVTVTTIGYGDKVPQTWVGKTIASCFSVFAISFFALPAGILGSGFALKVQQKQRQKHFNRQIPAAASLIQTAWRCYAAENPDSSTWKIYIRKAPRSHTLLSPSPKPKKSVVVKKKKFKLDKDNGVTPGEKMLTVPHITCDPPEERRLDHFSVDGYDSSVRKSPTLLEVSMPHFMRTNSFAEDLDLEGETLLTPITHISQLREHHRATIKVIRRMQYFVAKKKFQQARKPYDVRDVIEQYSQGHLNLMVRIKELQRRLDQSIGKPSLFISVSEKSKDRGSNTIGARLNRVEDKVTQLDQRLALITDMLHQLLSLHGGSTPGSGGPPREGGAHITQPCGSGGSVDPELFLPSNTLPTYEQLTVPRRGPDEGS
KCNQ1/minK, sequence (Q8N4C8 whole entry): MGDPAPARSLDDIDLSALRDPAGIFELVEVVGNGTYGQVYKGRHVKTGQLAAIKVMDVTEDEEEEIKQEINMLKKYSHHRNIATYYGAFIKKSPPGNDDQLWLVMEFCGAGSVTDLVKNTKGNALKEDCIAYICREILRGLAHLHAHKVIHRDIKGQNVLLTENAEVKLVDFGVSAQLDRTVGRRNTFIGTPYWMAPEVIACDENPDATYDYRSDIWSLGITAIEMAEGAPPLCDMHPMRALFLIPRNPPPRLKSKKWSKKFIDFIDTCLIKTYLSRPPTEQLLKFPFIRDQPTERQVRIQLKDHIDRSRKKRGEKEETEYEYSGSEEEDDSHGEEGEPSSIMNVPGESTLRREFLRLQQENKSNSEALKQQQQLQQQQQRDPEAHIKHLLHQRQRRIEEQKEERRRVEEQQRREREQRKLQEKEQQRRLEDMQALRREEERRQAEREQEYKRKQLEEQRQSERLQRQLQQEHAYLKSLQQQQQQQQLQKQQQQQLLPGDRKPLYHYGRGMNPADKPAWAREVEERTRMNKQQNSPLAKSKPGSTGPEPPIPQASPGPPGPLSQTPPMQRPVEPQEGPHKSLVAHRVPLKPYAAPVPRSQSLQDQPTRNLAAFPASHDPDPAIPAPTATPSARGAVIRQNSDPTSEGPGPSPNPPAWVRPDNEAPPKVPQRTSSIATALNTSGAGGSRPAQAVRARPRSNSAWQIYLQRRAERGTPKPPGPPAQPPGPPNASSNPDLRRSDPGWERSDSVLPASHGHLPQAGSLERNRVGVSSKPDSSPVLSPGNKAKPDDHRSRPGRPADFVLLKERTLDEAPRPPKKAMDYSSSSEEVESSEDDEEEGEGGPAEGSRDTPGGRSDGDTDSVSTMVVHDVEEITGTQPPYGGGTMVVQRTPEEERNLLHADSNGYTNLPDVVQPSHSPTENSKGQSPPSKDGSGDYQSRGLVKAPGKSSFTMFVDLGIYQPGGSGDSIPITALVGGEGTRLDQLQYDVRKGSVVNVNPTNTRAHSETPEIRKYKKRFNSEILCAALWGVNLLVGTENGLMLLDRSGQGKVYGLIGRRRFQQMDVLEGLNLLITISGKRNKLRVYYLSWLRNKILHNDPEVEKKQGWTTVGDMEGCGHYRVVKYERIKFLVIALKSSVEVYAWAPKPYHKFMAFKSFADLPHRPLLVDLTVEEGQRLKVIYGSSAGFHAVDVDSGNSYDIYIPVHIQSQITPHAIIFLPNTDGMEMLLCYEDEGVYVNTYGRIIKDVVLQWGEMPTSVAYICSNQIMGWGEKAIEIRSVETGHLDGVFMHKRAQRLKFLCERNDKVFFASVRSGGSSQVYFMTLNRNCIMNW

[7] = molecular target: T2, Bromodomain-containing protein 9; assay: Binding affinity to BRD9 (unknown origin) by isothermal titration calorimetry

Q: Which IC50 [1] does the source give for `COc1cc(C#N)ccc1S(=O)(=O)Nc1ccc2c(c1)cc(C)c(=O)n2C` here?
A: 619 nM

Q: What about the IC50 [2] of the same compound?
A: 4400 nM

Q: And the inhibition at 30 µM (Nav1.5)?
A: < 40%

Q: What about the “inhibition (INH)” value [3] of the same compound?
A: Not Active

Q: And the Papp B→A at 2 h, 10 µM [4]?
A: 52 ×10⁻⁶ cm/s

Q: And the GI50 (NCI-H1703)?
A: 10400 nM

Q: What about the Fa [5] of the same compound?
A: 35%

Q: What about the inhibition at 10 µM [6] of the same compound?
A: < 25%

Q: What about the inhibition at 30 µM (KCNQ1/minK) of the same compound?
A: < 40%

Q: What about the Kd [7] of the same compound?
A: 1000 nM
